Laboratory results taken from patent US9580487B2, “Method of treating stomach or bowel-related disorders by administering glucagon-like-peptide-2 (GLP-2) analogues” (Zealand Pharma A/S, priority 2005, dated 2017).
Entries after “also recorded” stand apart in the source; their conditions may differ. No end group written: not given here.

How the values were obtained:
[1] = system: Sprague-Dawley rats treated with 5-Fluorouracil (5-FU); assay: 5-FU-induced small intestinal atrophy and diarrhea in SD rats; format: in vivo
Experimental: FIG. 10 is a set of graphs showing effects of compound 1846 (SEQ ID NO:34) (16, 80 and 400 nmol/kg/d; s.c., n=6/dose group) in male Spague-Dawley rats treated with the cytostatic drug 5-Fluorouracil (5-FU). Compound 1846 (SEQ ID NO:34) was administered for 3 days prior to and for 4 days together with 5-FU (75 mg/kg, i.p. daily). Results were compared with responses in control animals treated with vehicle (saline) or 5-FU alone. Saline and 5-FU controls are also shown. […] Values are means±SEM. * P<0.05, relative to 5-FU alone.
FIG. 11 is a set of graphs showing the therapeutic effect of compound 1846 (SEQ ID NO:34) on diarrhea induced by treatment with the cytostatic drug 5-fluorouracil (5-FU). Rats were treated with 5-FU for 4 days with 75 mg/kg once daily (days 1-4); (n=40 rats). Half of the animals received additional treatment with compound 1846 (SEQ ID NO:34) (400 nmol/kg s.c. once daily) during the last 3 days prior to (days −3 to −1) and during 4 days of 5-FU treatment (days 0 to 3). Rats were observed twice daily (morning and evening) to determine whether the animal had diarrhea and the severity of the diarrhea was scored according to this scale: (0) no diarrhea; (1) mild—fecal staining around the anus; (2) moderate—fecal staining on the hind limbs and tail; and (3) severe—fecal staining on the front limbs and abdomen. On day 5, about 70% of Sprague Dawley rats that received 5-FU alone had developed diarrhea (FIG. 11A) while only 30% of the rats that were co-treated with compound 1846 (SEQ ID NO:34) developed diarrhea (FIG. 11B).
The effect of the clinical candidate, 1846 (SEQ ID NO:34), on 5-FU-induced small intestinal atrophy and diarrhea was investigated in SD rats. We have previously shown that i.p. administration of 75 mg/kg 5-FU once daily for four days induces significant small intestinal atrophy and diarrhea in SD rats. 1846 (SEQ ID NO:34) (16, 80 and 400 nmol/kg/d; […]) was administered twice daily for three days prior to 5-FU and for four days together with 5-FU administration. 5-FU controls and PBS controls were included in the study. […]

TNF-α = assay: Small intestinal tissue content of TNF-α (ELISA) in rats with indomethacin-induced inflammation; format: in vivo; details: for Tissue levels of TNF-α, proximal segment: indomethacin alone 97±14, control 34±7
Experimental: Male Sprague Dawley rats were treated with vehicle (saline; group 1) or indomethacin (7 mg/kg s.c., once daily for two days; groups 2-7). […] On day 3, rats were sacrificed and upon necropsy, the small intestine was divided into three segments of equal length corresponding to 1) duodenum and proximal jejunum, 2) mid and distal jejunum and 3) ileum. Samples were immediately snap-frozen in liquid N2 and stored at −80° C. until analysis. Homogenization and extraction of cellular protein from small intestinal segments was performed according to the following procedure: Tissue segments were weighed and added a volume of 1.5 ml per gram tissue ice-cold (4° C.) extraction buffer (10 mM Tris-HCl (Sigma) and 1 mM EDTA (J. T. Baker), (pH 7.6) with 0.05% sodium azide (Fluka), 1% Tween-80 (Fluka), 2 mM phenylmethylsulfonyl fluoride (PMSF, Fluka) and 1 μg/ml of each of the protease inhibitors aprotinin, leupeptin and pepstatin A (Roche Diagnostics)). The tissue was cut into small bits with a pair of scissors and homogenized three times for 20 seconds (IKA UltraTurrax T25 homogenizer, Janke & Kunkel) at 9500 rpm with intermittent cooling on ice for 30 seconds. The homogenate was centrifuged at 20.000×g for 30 minutes at 4° C., the supernatant was collected and stored at −20° C. until analysis for TNF-α small intestinal protein extractions were analyzed for TNF-α using a commercially available ELISA kit according to the manufacturer's instructions (Rat Tumor Necrosis Factor-α UltraSensitive ELISA kit, Biosource International Inc.). The assay has a detection limit of 0.7 pg/ml. Protein extractions were analyzed for total protein content using a commercially available assay (DC protein assay, Bio-Rad Laboratories Ltd.). Small intestinal tissue levels of TNF-α were expressed relative to total protein. […] Values are means±SEM. * P<0.05 vs. indomethacin (group 2).
At sacrifice, however the small intestine was separated into three segments of equal length (proximal, mid and distal). TNF-α concentrations were measured in each of the individual segments using a commercially available ELISA kit.

| Substance | Rats that developed diarrhea on day 5 ([1]; 400 nmol/kg s.c. with 5-FU 75 mg/kg, 5-FU alone about 70%) | 5-FU-induced small intestinal atrophy (SI-BW, SI length) in rats ([1]; 16, 80 and 400 nmol/kg/d s.c., 3 days prior to and 4 days with 5-FU 75 mg/kg i.p. daily) | Incidence and severity of diarrhea ([1]; highest dose (400 nmol/kg), rats administered 5-FU) | Tissue levels of TNF-α, proximal segment (TNF-α; 8 nmol/kg) | Tissue levels of TNF-α, proximal segment (TNF-α; 40 nmol/kg) | Tissue levels of TNF-α, proximal segment (TNF-α; 200 nmol/kg) | Small intestinal tissue levels of TNF-α (in words) (TNF-α; 8, 40 or 200 nmol/kg, indomethacin-treated rats) | Tissue levels of TNF-α, mid segment (in words) (TNF-α; 40 or 200 nmol/kg, indomethacin alone 108±9 pg/mg protein) | TNF-α levels, distal segment (in words) (TNF-α; indomethacin alone 75±5 pg/mg protein) | TNF-α: efficacy compared with prednisolone (TNF-α; vs prednisolone 10 mg/kg) |
| --- | --- | --- | --- | --- | --- | --- | --- | --- | --- | --- |
| [Gly2, Glu3, Ser8,11, Leu10, Ala16,24,28]hGLP-2(1-33)-(Lys)6-NH2 (HGEGSFSSELSTILDALAARDFIAWLIATKITDKKKKKK-NH2) [Compound 1846] | 30% | prevented 5-FU-induced small intestine atrophy; also recorded: dose-dependently prevented 5-FU induced small intestinal atrophy and maintained SI-BW and SI length at levels similar to the controls | decreased the incidence and severity of diarrhea |  |  |  |  |  |  |  |
| [Gly2, Glu3, Thr5, Ser8, Leu10, Ala11,16,24,28]hGLP-2(1-33)-(Lys)6-NH2 (HGEGTFSSELATILDALAARDFIAWLIATKITDKKKKKK-NH2) [Compound 1848] |  |  |  | 45±14 pg/mg protein | 44±9 pg/mg protein | 45±7 pg/mg protein | significantly decreased small intestinal tissue levels of the proinflammatory cytokine TNF-α | significantly reduced tissue levels of TNF-α | inhibitory effect on TNF-α levels in the distal segment but the effect was less pronounced compared to the other segments | more efficacious than prednisolone in the proximal and mid segments |
